The record followed here is ChEMBL document CHEMBL4725224, “A novel Golgi mannosidase inhibitor: Molecular design, synthesis, enzyme inhibition, and inhibition of spheroid formation” (Bioorg Med Chem, 2020).

Active and inactive are the calls of the source. No cut-off for these calls is given here.

Common to all, as to type: cell-based
Test [1] concerns HeLa. Briefly: Inhibition of Golgi mannosidase in human HeLa cells assessed as high mannose type N-glycans accumulation by measuring increase in fluorescence area using ConA-AF488 at 10 uM by fluorescence microscopy analysis (reference value: 100%). The settings on record: values are per cent of control.
Test [2] has as its system HeLa. In words: Inhibition of Golgi mannosidase in human HeLa cells assessed as high mannose type N-glycans accumulation by measuring reduction in cell length using ConA-AF488 at 10 uM by fluorescence microscopy analysis (reference value: 100%). Conditions: time day <=7.
In another test the test system is OVCAR-3. In words: Inhibition of Golgi mannosidase in human OVCAR-3 cells assessed as inhibition of spheroid formation by measuring size at 10 uM upto 7 days by light microscopy analysis relative to control. Conditions: time day <=7.
Test [3] relates to HeLa. In words: Inhibition of Golgi mannosidase in human HeLa cells assessed as intracellular high mannose type N-glycans accumulation by measuring increase in fluorescence intensity using ConA-AF488 at 10 uM by confocal laser scanning microscopy analysis.
For test [4], the system named is HeLa. In words: Inhibition of Golgi mannosidase in human HeLa cells assessed as high mannose type N-glycans accumulation by measuring increase in fluorescence intensity using ConA-AF488 at 10 uM by fluorescence microscopy analysis (reference value: 100%). Conditions: values are per cent of control.

Take `COc1ccc(C(CCNCc2ccc(Cl)cc2)c2ccc3c(c2)OCO3)cc1` (centres undefined): in the test on HeLa [1], the response, % of control came out at 150%. Besides, in the test on HeLa [2], the inhibition came out at 27%.
Turning to `CN(C)c1ccc(CNCCC(c2ccccc2)c2ccccc2)cc1`, the inhibition in the test with HeLa [2] came to 32%.
With `O=C1N[C@@H]2[C@@H](O)[C@@H](O)[C@H](O)[C@@H](CO)N2C1=O`, the inhibition in the test with HeLa [2] worked out at 13%. In addition, in the test with OVCAR-3, the inhibition entry was “inactive”. Moreover, in the test with HeLa [3], the inhibition entry is “Active”.
`Clc1ccc(CNCCC(c2ccccc2)c2ccccc2)cc1`: the response, % of control in the test on HeLa [4] is 134%; in the test on HeLa [1], 127%. In the test on HeLa [2], the inhibition amounted to 29%.
For `COc1ccc(C(CCNCc2ccc3c(c2)OCO3)c2ccc3c(c2)OCO3)cc1` (centres undefined), in that order: 110%, 108% and 26%.
For `Clc1ccc(CNCCC(c2ccccc2)c2ccc3c(c2)OCO3)cc1` (centres undefined), in that order: 111%, 115% and 18%.
For `c1ccc(C(CCNCc2ccc3c(c2)OCO3)c2ccc3c(c2)OCO3)cc1` (centres undefined), in that order: 104%, 113% and 31%.
On to `COc1ccc(C(CCNCc2ccc(N(C)C)cc2)c2ccc3c(c2)OCO3)cc1` (centres undefined), for which the response, % of control in the test on HeLa [1] is 148%. Moreover, the inhibition with HeLa [2] stood at 28%. Further, the inhibition result in the test with OVCAR-3 and in the test with HeLa [3] was “Active” in each case.
Consider `CN(C)c1ccc(CNCCC(c2ccccc2)c2ccc3c(c2)OCO3)cc1` (centres undefined), for which the response, % of control with HeLa [4] and with HeLa [1] was 114% in each case. In addition, in the test on HeLa [2], the inhibition came out at 23%.
For `c1ccc(C(CCNCc2ccc3c(c2)OCO3)c2ccccc2)cc1`, the response, % of control in the test on HeLa [4] is 114%; with HeLa [1], 113%. Further, the inhibition with HeLa [2] is 28%.
For the compound `c1ccc(CNCCC(c2ccccc2)c2ccc3c(c2)OCO3)cc1` (centres undefined), the inhibition in the test with HeLa [2] was found to be 21%.
